According to patent publication US11484543B2, “Compositions and methods for diagnosing and treating diseases and disorders associated with mutant KCNJ5” (The Rockefeller University, priority 2017, dated 2022):

Target: T1, KCNJ3/KCNJ5^G151R (Homo sapiens, UniProt P48544, G151R)
T1 construct: GFP; expressed in transfected cells; host or cells: HEK293T (American Type Culture Collection), transient co-transfection
T1 sequence (P48544 1-419 G151R): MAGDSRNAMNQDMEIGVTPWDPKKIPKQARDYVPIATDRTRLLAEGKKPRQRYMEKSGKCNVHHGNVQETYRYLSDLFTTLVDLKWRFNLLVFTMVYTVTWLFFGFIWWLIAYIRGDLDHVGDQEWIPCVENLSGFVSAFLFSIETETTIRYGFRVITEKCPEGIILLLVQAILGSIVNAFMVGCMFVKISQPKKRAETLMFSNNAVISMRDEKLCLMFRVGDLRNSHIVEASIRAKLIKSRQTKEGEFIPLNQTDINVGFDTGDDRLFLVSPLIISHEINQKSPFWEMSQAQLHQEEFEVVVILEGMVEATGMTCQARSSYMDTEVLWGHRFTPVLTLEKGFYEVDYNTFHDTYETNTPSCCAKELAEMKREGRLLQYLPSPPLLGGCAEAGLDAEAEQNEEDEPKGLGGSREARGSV
T1 sequence (P48549 1-501 partner): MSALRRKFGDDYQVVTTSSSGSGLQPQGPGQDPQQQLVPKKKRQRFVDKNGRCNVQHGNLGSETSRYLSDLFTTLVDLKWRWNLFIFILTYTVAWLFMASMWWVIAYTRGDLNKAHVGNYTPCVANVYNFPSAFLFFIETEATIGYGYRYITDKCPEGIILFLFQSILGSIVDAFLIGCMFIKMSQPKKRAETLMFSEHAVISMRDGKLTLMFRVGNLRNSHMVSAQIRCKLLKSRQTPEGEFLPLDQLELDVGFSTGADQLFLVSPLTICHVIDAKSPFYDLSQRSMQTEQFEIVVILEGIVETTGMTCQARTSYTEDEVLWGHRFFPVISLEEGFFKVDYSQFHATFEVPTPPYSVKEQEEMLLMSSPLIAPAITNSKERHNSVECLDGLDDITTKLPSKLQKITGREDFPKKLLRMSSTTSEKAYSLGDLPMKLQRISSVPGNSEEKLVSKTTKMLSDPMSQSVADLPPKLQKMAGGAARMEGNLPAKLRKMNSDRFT
Assay: Perforated whole-cell patch clamp, KCNJ3/KCNJ5^G151R heterotetramers in HEK293T cells
Format: cell-based
Protocol: HEK293T cells (American Type Culture Collection) were used for transient expression of GFP-tagged KCNJ5 or KCNJ3. The cells were grown in Dulbecco's modified Eagle medium (DMEM; Invitrogen) supplemented with 10% FBS (Invitrogen) in 5% CO2 and 95% air at 37° C. Cells were grown to 50-70% confluence for transfection, and the corresponding cDNAs (Choi et al., 2011, Science 331:768-772) were simultaneously applied to the cells using TurboFect transfection reagent according to the manufacturer's protocol (Fermentas). […]
Within 24 hr after transfection, the cells were treated with trypsin-containing medium (TrypLE Express) (Gibco) for 10 minutes to detach the cells. […] Fluorescence signal (an indication of positive transfection) was detected with an intensified video imaging system including a SIT 68 camera (Long Island Industries). […] After forming a high resistance seal (>2 GΩ), the membrane capacitance was monitored until the whole-cell patch configuration was formed. The cell membrane capacitance was measured and compensated. The K/cation currents were measured from −80 mV to 20 mV with 20 mV steps by an Axon 200A patch-clamp amplifier. The currents were low-pass filtered at 1 KHz and digitized by an Axon interface (Digidata 1200) and were analyzed using the pClamp software system 9 (Axon). […]

Compound | inhibition of KCNJ3/KCNJ5^G151R currents (20 μM, 10 minutes after addition) | inhibition of mutant KCNJ5 in electrophysiological studies (10 μM, heterotetramers of KCNJ3 and mutant or WT KCNJ5 (FIG. 13))
CC[C@H]1OC(=O)[C@H](C)[C@@H](O[C@H]2C[C@@](C)(OC)[C@@H](O)[C@H](C)O2)[C@H](C)[C@@H](O[C@@H]2O[C@H](C)C[C@H](N(C)C)[C@H]2O)[C@](C)(O)C[C@@H](C)/C(=N\OCOCCOC)[C@H](C)[C@@H](O)[C@]1(C)O [Roxithromycin, roxithromycin] | almost complete inhibition | 
N-demethyl-N-isobutyl-8,9-anhydroerythromycin A 6,9-hemiacetal [PLUX37] |  | specific inhibition of mutant KCNJ5
